Tests used:
Plasmodium falciparum [1] = test: Antiplasmodial activity against Plasmodium falciparum; assay type: functional, organism-based
Plasmodium falciparum [2] = test: Antiplasmodial activity against Plasmodium falciparum infected in mouse; assay type: functional

IC50 (Plasmodium falciparum [1]) [nM] | Structure (SMILES) | ED90 (Plasmodium falciparum [2]) [mg/kg]
25 | O=C(c1ccc(-c2cncc(-c3cncc(F)c3)n2)cc1)N1CCNCC1 | 1.5
35 | Cc1cncc(-c2cncc(-c3ccc(C(=O)N4CCNCC4)cc3)n2)c1 | 2.2
